Measured values published in ChEMBL document CHEMBL5154758, “Structure-Activity Relationship Study of Indolin-5-yl-cyclopropanamine Derivatives as Selective Lysine Specific Demethylase 1 (LSD1) Inhibitors” (J Med Chem, 2022).
Activity calls are given as the source filed them. The rule behind the calls is not given here.

Columns and labels:
MV4-11 [1] = assay: Induction of differentiation of human MV4-11 cells assessed as morphological changes by measuring reduction in nuclear to cytoplasmic ratio at 5 uM incubated for 240 hrs by Wright-Giemsa staining based microscopy; format: functional, cell-based
[2] = molecular target: Lysine-specific histone demethylase 1A (Homo sapiens) (UniProt O60341); details: dose 300.0 nM, time 1.0 hrs
[3] = Upregulation of CD86 expression in human MV4-11 cells assessed as fold change in CD86 expression at IC50 incubated for 24 hrs by qRT-PCR analysis relative to control; format: functional
[4] = molecular target: T1, Amine oxidase [flavin-containing] A (Homo sapiens, UniProt P21397); assay: Inhibition of human MAOA
T1 sequence (P21397 whole entry): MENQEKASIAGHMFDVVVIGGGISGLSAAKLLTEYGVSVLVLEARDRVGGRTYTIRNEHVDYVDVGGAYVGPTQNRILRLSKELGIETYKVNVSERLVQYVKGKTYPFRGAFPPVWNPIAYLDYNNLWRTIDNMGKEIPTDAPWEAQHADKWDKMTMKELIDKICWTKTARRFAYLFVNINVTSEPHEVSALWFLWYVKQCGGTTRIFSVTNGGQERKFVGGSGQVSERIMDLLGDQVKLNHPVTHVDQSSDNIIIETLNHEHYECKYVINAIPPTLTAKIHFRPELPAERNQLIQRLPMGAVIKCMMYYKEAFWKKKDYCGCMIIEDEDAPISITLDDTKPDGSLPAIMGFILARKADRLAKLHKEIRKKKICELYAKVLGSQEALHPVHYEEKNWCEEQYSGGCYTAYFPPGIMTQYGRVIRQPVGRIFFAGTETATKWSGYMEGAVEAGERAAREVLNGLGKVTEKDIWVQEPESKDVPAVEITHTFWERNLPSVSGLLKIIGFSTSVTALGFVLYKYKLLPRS

RPMI-8226 = assay: Antiproliferative activity against human RPMI-8226 cells assessed as inhibition of cell growth incubated for 240 hrs by MTS assay; format: functional, cell-based; details: RPMI-8226, 240 h
[5] = molecular target: T2, Lysine-specific histone demethylase 2 (Homo sapiens, UniProt Q8NB78); assay: Inhibition of recombinant human full length LSD2 using biotinylated H3K4Me2 peptide as substrate by TR-FRET assay
T2 sequence (Q8NB78 whole entry): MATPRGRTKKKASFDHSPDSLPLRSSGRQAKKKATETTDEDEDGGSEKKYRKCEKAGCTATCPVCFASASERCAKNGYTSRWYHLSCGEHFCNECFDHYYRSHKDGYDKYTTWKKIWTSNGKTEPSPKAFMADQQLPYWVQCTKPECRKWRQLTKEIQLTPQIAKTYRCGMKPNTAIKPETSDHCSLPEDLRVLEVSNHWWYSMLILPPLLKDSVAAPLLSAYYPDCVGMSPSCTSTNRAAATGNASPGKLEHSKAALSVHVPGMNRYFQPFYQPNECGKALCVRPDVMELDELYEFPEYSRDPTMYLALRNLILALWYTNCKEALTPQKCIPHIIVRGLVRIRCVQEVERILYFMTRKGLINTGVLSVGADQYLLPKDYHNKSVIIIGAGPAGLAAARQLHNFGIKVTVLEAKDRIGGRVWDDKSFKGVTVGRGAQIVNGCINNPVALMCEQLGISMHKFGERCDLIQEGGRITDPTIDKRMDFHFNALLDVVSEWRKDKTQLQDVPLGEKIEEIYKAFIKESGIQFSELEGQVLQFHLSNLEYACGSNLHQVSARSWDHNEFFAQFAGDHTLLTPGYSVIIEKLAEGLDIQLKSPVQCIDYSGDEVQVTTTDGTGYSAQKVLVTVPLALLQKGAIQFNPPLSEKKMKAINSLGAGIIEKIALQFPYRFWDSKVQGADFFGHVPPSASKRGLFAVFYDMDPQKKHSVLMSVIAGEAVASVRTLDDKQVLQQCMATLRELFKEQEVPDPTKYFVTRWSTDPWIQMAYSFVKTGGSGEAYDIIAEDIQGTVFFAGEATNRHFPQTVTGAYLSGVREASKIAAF

[6] = molecular target: T3, Amine oxidase [flavin-containing] B (Homo sapiens, UniProt P27338); assay: Inhibition of human MAOB
T3 sequence (P27338 whole entry): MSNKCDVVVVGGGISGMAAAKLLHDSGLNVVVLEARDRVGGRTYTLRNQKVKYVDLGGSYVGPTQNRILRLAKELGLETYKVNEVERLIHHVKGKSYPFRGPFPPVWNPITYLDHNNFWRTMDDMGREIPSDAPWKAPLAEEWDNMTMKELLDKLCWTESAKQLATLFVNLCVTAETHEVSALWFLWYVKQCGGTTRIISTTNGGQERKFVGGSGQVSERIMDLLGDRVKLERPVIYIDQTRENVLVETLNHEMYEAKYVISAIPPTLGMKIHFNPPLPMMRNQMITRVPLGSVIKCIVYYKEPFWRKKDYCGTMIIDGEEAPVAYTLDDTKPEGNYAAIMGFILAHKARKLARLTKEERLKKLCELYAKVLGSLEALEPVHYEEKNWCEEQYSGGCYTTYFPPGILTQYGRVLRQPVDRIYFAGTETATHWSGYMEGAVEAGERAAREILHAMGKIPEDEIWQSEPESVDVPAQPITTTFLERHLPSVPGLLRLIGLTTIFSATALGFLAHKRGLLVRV

[7] = molecular target: T3, Amine oxidase [flavin-containing] B; assay: biochemical
Description: Inhibition of human recombinant MAO-B expressed in baculovirus infected BTI insect cells using luminogenic MAO substrate incubated for 1 hr by luciferin-based luminescence assay

MV4-11 [8] = assay: Activation of CD86 expression in human MV4-11 cells incubated for 24 hrs by qRT-PCR analysis; format: functional, cell-based; details: MV4-11, 24 h
[9] = molecular target: T1, Amine oxidase [flavin-containing] A; assay: biochemical
Description: Inhibition of human recombinant MAO-A expressed in baculovirus infected BTI insect cells using luminogenic MAO substrate incubated for 1 hr by luciferin-based luminescence assay

MV4-11 [10] = assay: Antiproliferative activity against human MV4-11 cells assessed as inhibition of cell growth incubated for 240 hrs by MTS assay; format: functional, cell-based; details: MV4-11, 240 h
[11] = molecular target: T2, Lysine-specific histone demethylase 2; assay: Inhibition of human LSD2
MV4-11 [12] = assay: Induction of differentiation of human MV4-11 cells assessed as morphological changes by measuring segmented nucleus at 5 uM incubated for 240 hrs by Wright-Giemsa staining based microscopy; format: functional, cell-based

IC50 [7] | IC50 [9] | SMILES | also measured
> 100 µM | > 100 µM | O=C(O)c1ccc(CN2CCC(CN[C@@H]3C[C@H]3c3ccccc3)CC2)cc1 [GSK2879552] | Activity (MV4-11 [1]): Active; inhibition [2]: Active; fold change (FC) [3]: 10.15; IC50 [4]: > 100 µM; IC50 (RPMI-8226): > 20 µM; IC50 [5]: > 100 µM; IC50 [6]: > 100 µM; EC50 (MV4-11 [8]): 0.023 µM; IC50 (MV4-11 [10]): 1.19 µM; IC50 [11]: > 100 µM; Activity (MV4-11 [12]): Active
 | 8640 µM | O=S(=O)(N1CCc2cc(C3CC3NCC3CCNCC3)ccc21)C(F)(F)F (trans isomer) | 
> 100 µM | 100 µM | CC1(CNC2CC2c2ccc3c(c2)CCN3S(=O)(=O)c2ccccc2)CCNCC1 (trans isomer) | 
> 100 µM | > 100 µM | O=S(=O)(C1CCCCC1)N1CCc2cc(C3CC3NCC3CCNCC3)ccc21 (centres undefined) | 
> 100 µM | > 100 µM | CCCCC(=O)N1CCc2cc(C3CC3NCC3CCNCC3)ccc21 (centres undefined) | 
 | 96.3 µM | N[C@H]1CC[C@H](CNC2CC2c2ccc3c(c2)CCN3S(=O)(=O)c2ccccc2)CC1 (some centres undefined) | 
> 100 µM | > 100 µM | CS(=O)(=O)N1CCc2cc(C3CC3NCC3CCNCC3)ccc21 (centres undefined) | IC50 (MV4-11 [10]): 2.39 µM
> 100 µM | > 100 µM | O=C(Cc1ccccc1)N1CCc2cc(C3CC3NCC3CCNCC3)ccc21 (trans isomer) | 
> 100 µM | > 100 µM | O=C(N[C@@H](CCCCNC1CC1c1ccccc1)C(=O)NCc1ccc(Cl)cc1)c1ccc(-c2ccccc2)cc1 (some centres undefined) | 
> 100 µM |  | O=S(=O)(c1ccccc1)N1CCc2cc(C3CC3NCC3CCN(Cc4ccccc4)CC3)ccc21 (trans isomer) | 
